Laboratory results from patent US20070142317A1, “Topical composition for treatment of skin disorders” (QLT USA, Inc., priority 2003, published 2007).

Key:
lymphocytes = settings: cited from earlier work
Jurkat cells = assay: Caspase-3 induction by flow cytometry (Example 31); assay type: cell-based; settings: drug 500 μM, PHA-activated cells
Procedure: (§1) In a search for a topical agent that can locally deplete levels of T-cells in the skin, apoptotic compounds were evaluated for their mechanisms of action. The ability that […] induce apoptosis by the same mechanisms was examined by cytokine secretion. […] Caspase-3 and cytokine (IL-2, IL-6, TNF, and IFN-γ) levels were determined and compared to controls at 23 and 46 hours. FdA was incorporated to evaluate the effect of the halogen group and Ara-C for its overlapping mechanisms of action. […] At the end of the treatment period, the cells were harvested and Caspase-3 induction was determined using a flow-cytometry-based method to quantify the percentage of cells that induced Caspase-3. The level of apoptosis is expressed as “% FITC shift”. Cytokine secretion (IL-2, IL-6, TNF, and IFN-γ) was measured at the same time by ELISA and is expressed in pg/mL. […]

U-937 cells [1] = assay: Caspase-3 induction by flow cytometry (Example 31); assay type: cell-based; settings: drug 500 μM, LPS-activated cells
Procedure: as §1

Jurkat T cells = assay: TUNEL apoptosis assay, sequential exposure to dCF then dAd (Example 21); assay type: cell-based; settings: no dCF (0 uM)
Procedure: (§2) Thus, it is hypothesized that the sequential exposure of the cells to dCF, followed by deoxyadenosine (dAd) will lead to greater levels of apoptosis than dCF alone. […] The cells were then incubated in dAd for 2 more days. At the end of the treatment period, the cells were harvested for analysis by a TUNEL assay, a flow-cytometry-based method to quantify the percentage of cells that have undergone apoptosis. The level of apoptosis is expressed as “% FITC shift”. As a positive control, the cells were exposed to 5 mM camptothecin for 2 days.

U937 monocytoid cells [2] = assay: as above; assay type: cell-based; settings: no dCF (0 uM)
Procedure: as §2

[3] = Calculated concentration in the skin assuming 7% penetration
U937 monocytoid cells [4] = assay: TUNEL assay, dAd added at different times after dCF wash-out (Example 22); assay type: cell-based; settings: dCF 0 μM 2 days, wash, 2 more days
U937 monocytoid cells [5] = assay: TUNEL assay, dAd, adenosine and adenine dose ranging (Example 24); assay type: cell-based; settings: 2 days, no dCF
Procedure: U937 monocytoid cells were cultured in the presence of dAd at various concentrations of dAd (0, 50, 75, 100, 250 and 1000 micromoles/liter). The cells were incubated in dAd for 2 days. At the end of the treatment period, the cells were harvested for analysis by a TUNEL assay, a flow-cytometry-based method to quantify the percentage of cells that have undergone apoptosis. The level of apoptosis expressed as “% FITC shift”. The level of cell cycle arrest is expressed as “% PI shift”. As a positive control, the cells were exposed to 5 mM camptothecin for 2 days.

U-937 cells [6] = assay: Toxicity to U-937 cells (summary in Example 29); assay type: cell-based
U937 monocytoid cells [7] = assay: TUNEL assay, simultaneous exposure to dCF and dAd (Example 22); assay type: cell-based
Procedure: Methods Simultaneous Exposure—U937 monocytoid cells were cultured in the presence of 0, 1, 2.5, 10, 20, 50, 100, 150, 200, and 250 μM dAdo for 2 days. […] At the end of the treatment period, the cells were harvested for analysis by a TUNEL assay, a flow-cytometry-based method to quantify the percentage of cells that have undergone apoptosis. The level of apoptosis is expressed as “% FITC shift”. As a positive control, the cells were exposed to 5 mM camptothecin for 2 days.

U937 monocytoid cells [8] = assay: TUNEL assay, dAd added at different times after dCF wash-out (Example 22); assay type: cell-based; settings: dCF 0 μM 2 days, wash, 2 more days; remark: listed apart in the source
Procedure: At 0, 6, 24, and 48 hours, 50 μM dAd was added and the cells were incubated for an additional 2 days. At the end of the treatment period, the cells were harvested for analysis by a TUNEL assay, a flow-cytometry-based method to quantify the percentage of cells that have undergone apoptosis. The level of apoptosis is expressed as “% FITC shift”. As a positive control, the cells were exposed to 5 mM camptothecin for 2 days.

[9] = tested on: monocytes and lymphocytes; assay: Toxicity of dAdo to monocytes and lymphocytes; assay type: cell-based
U-937 cells [10] = assay: Cytokine secretion by ELISA (Example 31); assay type: cell-based; settings: for Cytokine Secretion IL-6 pg/ml Mean of 3 Replicates: drug 500 μM, LPS-activated cells
Procedure: as §1

[11] = 50 μM dAd added 0 hr after wash-out
[12] = 50 μM dAd added 6 hr after wash-out
[13] = 50 μM dAd added 24 hr after wash-out
[14] = 50 μM dAd added 48 hr after wash-out
[15] = drug 50 uM, listed as dAd (Acros)
[16] = drug 50 uM, listed as dAd (Sigma)
[17] = drug 100 uM, listed as dAd (Acros)
[18] = drug 100 uM, listed as dAd (Sigma)
[19] = drug 250 uM, listed as dAd (Acros)
[20] = drug 250 uM, listed as dAd (Sigma)
[21] = drug 1000 uM, listed as dAd (Acros)
[22] = drug 1000 uM, listed as dAd (Sigma)
[23] = dAd 10 μM alone (dCF 0), 2 days
[24] = dAd 20 μM alone (dCF 0), 2 days
[25] = dAd 50 μM alone (dCF 0), 2 days
[26] = dAd 100 μM alone (dCF 0), 2 days
[27] = dAd 150 μM alone (dCF 0), 2 days
[28] = dAd 200 μM alone (dCF 0), 2 days
[29] = dAd 250 μM alone (dCF 0), 2 days

Structure (SMILES): Nc1ncnc2c1ncn2[C@H]1C[C@H](O)[C@@H](CO)O1 [dAd, 2′-deoxyadenosine]
- potentiation of the growth inhibitory effect of dCF (lymphocytes): up to 1,000 fold
- Caspase-3 Induction % FITC Shift - Mean of 3 Replicates (Jurkat cells; 23 hr): 73%
- Caspase-3 Induction % FITC Shift - Mean of 3 Replicates (Jurkat cells; 46 hr): 92%
- Caspase-3 Induction % FITC Shift - Mean of 3 Replicates (U-937 cells [1]; 23 hr): 67%
- Caspase-3 Induction % FITC Shift - Mean of 3 Replicates (U-937 cells [1]; 46 hr): 43%
- % FITC Shift (Jurkat T cells; dAd 10 uM 2 days): 1.6%
- % FITC Shift (Jurkat T cells; dAd 50 uM 2 days): 4.2%
- % FITC Shift (Jurkat T cells; dAd 250 uM 2 days): 22.2%
- % FITC Shift (U937 monocytoid cells [2]; dAd 10 uM 2 days): 1.8%
- % FITC Shift (U937 monocytoid cells [2]; dAd 50 uM 2 days): 2.6%
- % FITC Shift (U937 monocytoid cells [2]; dAd 250 uM 2 days): 92%
- Concentration in the skin assuming 7% penetration ([3]; topical concentration 0.00005%): 0.14 µM
- Concentration in the skin assuming 7% penetration ([3]; topical concentration 0.0005%): 1.39 µM
- Concentration in the skin assuming 7% penetration ([3]; topical concentration 0.005%): 13.93 µM
- Concentration in the skin assuming 7% penetration ([3]; topical concentration 0.01%): 27.86 µM
- Concentration in the skin assuming 7% penetration ([3]; topical concentration 0.05%): 139.31 µM
- Concentration in the skin assuming 7% penetration ([3]; topical concentration 0.1%): 278.62 µM
- Concentration in the skin assuming 7% penetration ([3]; topical concentration 0.5%): 1393.09 µM
- Concentration in the skin assuming 7% penetration ([3]; topical concentration 1%): 2786.18 µM
- Concentration in the skin assuming 7% penetration ([3]; topical concentration 3%): 8358.54 µM
- Concentration in the skin assuming 7% penetration ([3]; topical concentration 5%): 13930.90 µM
- % PI Shift (U937 monocytoid cells [4]; [11]): 1.4%
- % PI Shift (U937 monocytoid cells [4]; [12]): 1.3%
- % PI Shift (U937 monocytoid cells [4]; [13]): 1.1%
- % PI Shift (U937 monocytoid cells [4]; [14]): 2.0%
- concentration at which cell cycle arrest begins (U937 monocytoid cells [5]): 75 µM
- concentration at which apoptosis is induced (U937 monocytoid cells [5]; progressively more at 250 and 1000): 100 µM
- % FITC Shift (U937 monocytoid cells [5]; [15]): 0.7%
- % PI Shift (U937 monocytoid cells [5]; [15]): 2.9%
- % FITC Shift (U937 monocytoid cells [5]; [16]): 1.5%
- % PI Shift (U937 monocytoid cells [5]; [16]): 3.2%
- % FITC Shift (U937 monocytoid cells [5]; drug 75 uM): 1.8%
- % PI Shift (U937 monocytoid cells [5]; drug 75 uM, listed as dAd (Acros)): 7.1%
- % PI Shift (U937 monocytoid cells [5]; drug 75 uM, listed as dAd (Sigma)): 8.8%
- % FITC Shift (U937 monocytoid cells [5]; [17]): 3.5%
- % PI Shift (U937 monocytoid cells [5]; [17]): 9.8%
- % FITC Shift (U937 monocytoid cells [5]; [18]): 9.0%
- % PI Shift (U937 monocytoid cells [5]; [18]): 12.1%
- % FITC Shift (U937 monocytoid cells [5]; [19]): 54.1%
- % PI Shift (U937 monocytoid cells [5]; [19]): 14.6%
- % FITC Shift (U937 monocytoid cells [5]; [20]): 65.8%
- % PI Shift (U937 monocytoid cells [5]; [20]): 12.0%
- % FITC Shift (U937 monocytoid cells [5]; [21]): 80.2%
- % PI Shift (U937 monocytoid cells [5]; [21]): 32.6%
- % FITC Shift (U937 monocytoid cells [5]; [22]): 79.2%
- % PI Shift (U937 monocytoid cells [5]; [22]): 29.5%
- concentration toxic to U-937 cells on its own (U-937 cells [6]): 250 µM
- concentration at which dAd itself induces apoptosis (U937 monocytoid cells [7]; U937 cells, no dCF): 100 to 200 µM
- concentrations at which dAd alone is toxic (U937 monocytoid cells [7]; absence of dCF, 2 days): > 100 µM
- % FITC Shift (U937 monocytoid cells [7]; dAd 1 μM alone (dCF 0), 2 days): 1.2%
- % PI Shift (U937 monocytoid cells [7]; dAd 1 μM alone (dCF 0), 2 days): 1.1%
- % FITC Shift (U937 monocytoid cells [7]; [23]): 1.8%
- % PI Shift (U937 monocytoid cells [7]; [23]): 1.5%
- % FITC Shift (U937 monocytoid cells [7]; [24]): 1.7%
- % PI Shift (U937 monocytoid cells [7]; [24]): 1.8%
- % FITC Shift (U937 monocytoid cells [7]; [25]): 1.5%
- % PI Shift (U937 monocytoid cells [7]; [25]): 3.8%
- % FITC Shift (U937 monocytoid cells [7]; [26]): 33.7%
- % PI Shift (U937 monocytoid cells [7]; [26]): 15.9%
- % FITC Shift (U937 monocytoid cells [7]; [27]): 78.3%
- % PI Shift (U937 monocytoid cells [7]; [27]): 17.3%
- % FITC Shift (U937 monocytoid cells [7]; [28]): 62.6%
- % PI Shift (U937 monocytoid cells [7]; [28]): 19.7%
- % FITC Shift (U937 monocytoid cells [7]; [29]): 66.4%
- % PI Shift (U937 monocytoid cells [7]; [29]): 17.8%
- % FITC Shift (U937 monocytoid cells [8]; [11]): 1.6%
- % FITC Shift (U937 monocytoid cells [8]; [12]): 2.2%
- % FITC Shift (U937 monocytoid cells [8]; [13]): 2.2%
- % FITC Shift (U937 monocytoid cells [8]; [14]): 1.0%
- concentrations toxic to monocytes and lymphocytes [9]: greater than 100 μM
- Cytokine Secretion IL-6 pg/ml Mean of 3 Replicates (U-937 cells [10]; 23 hr): 4 pg/mL
- IL-6 inhibition after Caspase-3 induction (U-937 cells [10]; 46 hours, compared to no drug+LPS): 55%
- Cytokine Secretion IL-6 pg/ml Mean of 3 Replicates (U-937 cells [10]; 46 hr): 4 pg/mL
